Publication PMC12733323, “Novel Mono-Substituted 4H-1,2,6-Thiadiazines with Antioxidant and Anti-Lipoxygenase Activities” (International Journal of Molecular Sciences, 2025)
Read-outs that look alike come from different tables or passages of the source.

What was measured:
[1] = Interaction with the stable free radical DPPH (reducing activity)
Procedure: The synthesized derivatives were tested for their interaction with the stable free radical 2,2-diphenyl-1-picrylhydrazyl (DPPH) at a concentration of 100 μM after 20 and 60 min (Table 4). DPPH is widely used as a standard method for evaluating antioxidant activity. […] However, lipophilic compounds typically dissolve efficiently in organic solvents when they react with DPPH. The relationship between antioxidant activity and lipophilicity was reported in previous studies.
In vitro assays were carried out to evaluate the reducing activity of the novel derivatives against the DPPH stable radical. Free radical scavenging activity was determined by measuring absorbance at 517 nm after 20 and 60 min at room temperature. NDGA served as the reference compound. (Table 4).

[2] = Inhibition of AAPH-induced linoleic acid peroxidation
Text: In the lipid peroxidation assay, sodium linoleate was used as the substrate, while 2,2′-azobis(2-methylpropionamidine) dihydrochloride (AAPH) was the peroxyl radical initiator. The formation of 13-hydroperoxy-linoleic acid from linoleic acid was observed by UV-Vis absorption measurements at 234 nm. Trolox was used as a reference compound.
AAPH was used as an alkyl peroxyl radical inducer. In this experiment, the compounds’ ability to prevent linoleic acid oxidation by alkyl peroxyl radicals through absorbance changes at 234nm was evaluated, corresponding to the production of 13-hydroperoxy-linoleic acid. Trolox was used as the reference compound.

soybean lipoxygenase = target: T1, soybean lipoxygenase (Glycine max, UniProt P08170); assay: Inhibition of soybean lipoxygenase; format: biochemical; conditions: for inhibition at 100 µM: read-out: LOX % Inhibition 100 μM
T1 sequence (P08170 1-839): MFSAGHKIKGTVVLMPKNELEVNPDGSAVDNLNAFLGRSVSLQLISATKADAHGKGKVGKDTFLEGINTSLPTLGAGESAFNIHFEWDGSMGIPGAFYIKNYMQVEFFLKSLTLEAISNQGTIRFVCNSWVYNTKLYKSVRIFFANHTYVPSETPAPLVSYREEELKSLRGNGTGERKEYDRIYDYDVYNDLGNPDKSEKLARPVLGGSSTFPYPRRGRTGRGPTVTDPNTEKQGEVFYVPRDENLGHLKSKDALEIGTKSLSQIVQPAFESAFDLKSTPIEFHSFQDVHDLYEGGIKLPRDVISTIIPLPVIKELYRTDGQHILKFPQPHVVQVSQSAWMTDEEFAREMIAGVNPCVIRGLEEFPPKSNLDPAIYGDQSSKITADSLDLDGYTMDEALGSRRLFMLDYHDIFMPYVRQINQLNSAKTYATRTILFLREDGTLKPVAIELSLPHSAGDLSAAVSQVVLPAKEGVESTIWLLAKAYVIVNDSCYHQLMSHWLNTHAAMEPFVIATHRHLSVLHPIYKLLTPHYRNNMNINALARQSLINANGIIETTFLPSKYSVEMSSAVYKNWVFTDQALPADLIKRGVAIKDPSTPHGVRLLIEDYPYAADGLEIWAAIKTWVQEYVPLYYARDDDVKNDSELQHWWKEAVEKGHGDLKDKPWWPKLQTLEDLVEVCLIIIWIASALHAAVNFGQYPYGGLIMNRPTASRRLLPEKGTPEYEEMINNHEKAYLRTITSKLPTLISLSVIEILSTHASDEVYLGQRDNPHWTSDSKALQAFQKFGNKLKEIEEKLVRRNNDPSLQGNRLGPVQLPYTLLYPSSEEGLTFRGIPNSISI
Procedure: Lipoxygenase (LOX) plays a key role in the formation of leukotrienes, which are important inflammatory mediators. Leukotrienes are considered key therapeutic targets in inflammatory diseases due to their role. Soybean lipoxygenase (LOX), a plant-based enzyme, has long been used as a model system to study the structural and functional characteristics of the lipoxygenase family due to its significant homology with human 5-LOX [39].
Sodium linoleate (0.1 mM), 0.2 mL of soybean lipoxygenase solution (1/9 × 10^−4 w/v in saline), and 10 μL of the test compound stock solution (10 mM in DMSO) were incubated at room temperature. The formation of 13-hydroperoxy-linoleic acid was monitored by measuring absorbance at 234 nm. […] A couple of concentrations of the test compounds were used to calculate the IC50 values.

| SMILES | inhibition at 100 µM (soybean lipoxygenase) [%] | IC50 (soybean lipoxygenase; read-out: LOX IC50) [µM] | RA%, DPPH, 20 min (100 µM) [1] | RA%, DPPH, 60 min (100 µM) [1] | %AAPH (100 µM) [2] | IC50 (soybean lipoxygenase) [µM] | RA%, DPPH, 60 min (100 µM) ([1]; listed as ΝDGA) [%] |
| --- | --- | --- | --- | --- | --- | --- | --- |
| O=c1c(Cl)nsnc1N1CCN(c2ccccc2)CC1 [Compound 9a, 3-Chloro-5-(4-phenylpiperazin-1-yl)-4H-1,2,6-thiadiazin-4-one] |  |  | 7% | 6% | 15% | 7.5 |  |
| O=c1c(Cl)nsnc1N1CCN(C(c2ccccc2)c2ccccc2)CC1 [Compound 9b, 3-(4-Benzhydrylpiperazin-1-yl)-5-chloro-4H-1,2,6-thiadiazin-4-one] |  |  | 2% | 2% | 20% | 55 |  |
| N#CC(C#N)=C1C(Cl)=NSN=C1N1CCN(C(c2ccccc2)c2ccccc2)CC1 [Compound 10b, 2-[3-(4-Benzhydrylpiperazin-1-yl)-5-chloro-4H-1,2,6-thiadiazin-4-ylidene]malononitrile] |  | 67.5 | no | no | No |  |  |
| O=c1c(Cl)nsnc1Sc1nc2ccccc2o1 [Compound 11c, 3-(Benzo[d]oxazol-2-ylthio)-5-chloro-4H-1,2,6-thiadiazin-4-one] |  |  | 21% | 22% | 5% | 77.5 |  |
| CC(=O)Nc1ccc(Sc2nsnc(Cl)c2=O)cc1 [Compound 11d, N-{4-[(5-Chloro-4-oxo-4H-1,2,6-thiadiazin-3-yl)thio]phenyl}acetamide] |  |  | 1% | 2% | 43% | 85 |  |
| Cn1cnnc1Sc1nsnc(Cl)c1=O [Compound 11f, 3-Chloro-5-[(4-methyl-4H-1,2,4-triazol-3-yl)thio]-4H-1,2,6-thiadiazin-4-one] |  |  | 10% | 12% | 7% | 52.5 |  |
| CCOc1ccc2nc(Sc3nsnc(Cl)c3=O)sc2c1 [Compound 11i, 3-Chloro-5-[(6-ethoxybenzo[d]thiazol-2-yl)thio]-4H-1,2,6-thiadiazin-4-one] |  |  | 3% | no | No | 67.5 |  |
| Cn1nnnc1SC1=NSN=C(Cl)C1=C(C#N)C#N [Compound 12b, 2-{3-Chloro-5-[(1-methyl-1H-tetrazol-5-yl)thio]-4H-1,2,6-thiadiazin-4-ylidene}malononitrile] |  |  | 27% | 36% | No | 75 |  |
| CC(Cc1ccc(O)c(O)c1)C(C)Cc1ccc(O)c(O)c1 (centres unmarked) [NDGA, Nordihydroguaiaretic acid, reference compound] |  |  | 87% | 87% |  |  | 93 |
| Cc1c(C)c2c(c(C)c1O)CCC(C)(C(=O)O)O2 (centres unmarked) [Trolox, reference compound] |  |  |  |  | 93% |  |  |

Continued, in another order:

| inhibition at 100 µM (soybean lipoxygenase) [%] | IC50 (soybean lipoxygenase; read-out: LOX IC50) [µM] | SMILES | RA%, DPPH, 20 min (100 µM) [1] | RA%, DPPH, 60 min (100 µM) [1] | %AAPH (100 µM) [2] | IC50 (soybean lipoxygenase) [µM] | RA%, DPPH, 60 min (100 µM) ([1]; listed as ΝDGA) [%] |
| --- | --- | --- | --- | --- | --- | --- | --- |
| 46 |  | N#CC(C#N)=C1C(Cl)=NSN=C1N1CCN(c2ccccc2)CC1 [Compound 10a, 2-[3-Chloro-5-(4-phenylpiperazin-1-yl)-4H-1,2,6-thiadiazin-4-ylidene]malononitrile] | 16% | 15% | 27% |  |  |
| 31 |  | Cc1ccnc(Sc2nsnc(Cl)c2=O)n1 [Compound 11a, 3-Chloro-5-[(4-methylpyrimidin-2-yl)thio]-4H-1,2,6-thiadiazin-4-one] | 2% | no | No |  |  |
| 44 |  | Cn1nnnc1Sc1nsnc(Cl)c1=O [Compound 11b, 3-Chloro-5-[(1-methyl-1H-tetrazol-5-yl)thio]-4H-1,2,6-thiadiazin-4-one] | 3% | 3% | 45% |  |  |
| 50 |  | O=c1c(Cl)nsnc1Sc1nnnn1-c1ccccc1 [Compound 11e, 3-Chloro-5-[(1-phenyl-1H-tetrazol-5-yl)thio]-4H-1,2,6-thiadiazin-4-one] | 15% | 17% | No |  |  |
| 40 |  | O=c1c(Cl)nsnc1Sc1nccs1 [Compound 11g, 3-Chloro-5-(thiazol-2-ylthio)-4H-1,2,6-thiadiazin-4-one] | 10% | 7% | No |  |  |
| 33 |  | O=c1c(Cl)nsnc1Sc1nc2ccccc2s1 [Compound 11h, 3-(benzo[d]thiazol-2-ylthio)-5-chloro-4H-1,2,6-thiadiazin-4-one] | 8% | 1% | No |  |  |
| 41 |  | Cc1ccnc(SC2=NSN=C(Cl)C2=C(C#N)C#N)n1 [Compound 12a, 2-{3-Chloro-5-[(4-methylpyrimidin-2-yl)thio]-4H-1,2,6-thiadiazin-4-ylidene}malononitrile] | 82% | 90% | 18% |  |  |
| 27 |  | N#CC(C#N)=C1C(Cl)=NSN=C1Sc1nc2ccccc2o1 [Compound 12c, 2-[3-(Benzo[d]oxazol-2-ylthio)-5-chloro-4H-1,2,6-thiadiazin-4-ylidene]malononitrile] | 89% | 92% | 70% |  |  |
